Test results published in paper PMC11081424 (Protein Science : A Publication of the Protein Society, 2024).

Molecular target: T1, TPARED (Comamonas sp., UniProt Q3C1E0)
T1 sequence (Q3C1E0 1-336): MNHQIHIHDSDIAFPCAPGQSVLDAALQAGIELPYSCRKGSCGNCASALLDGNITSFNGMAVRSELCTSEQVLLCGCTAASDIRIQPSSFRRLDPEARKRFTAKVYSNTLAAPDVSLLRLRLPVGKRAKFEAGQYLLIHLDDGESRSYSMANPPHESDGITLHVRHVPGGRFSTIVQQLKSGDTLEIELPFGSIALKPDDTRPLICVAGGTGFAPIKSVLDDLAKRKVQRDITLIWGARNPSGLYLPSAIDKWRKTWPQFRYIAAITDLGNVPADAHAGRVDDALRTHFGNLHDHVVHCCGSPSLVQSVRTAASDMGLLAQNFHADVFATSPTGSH
Assay: FAD released by acid denaturation, UV/vis at […] nm
Type: binding
Settings: as purified, three purifications

Compound: Cc1cc2nc3c(=O)[nH]c(=O)nc-3n(C[C@H](O)[C@H](O)[C@H](O)COP(=O)(O)OP(=O)(O)OC[C@H]3O[C@@H](n4cnc5c(N)ncnc54)[C@H](O)[C@@H]3O)c2cc1C [FAD]
- equivalents of FAD per protein: 0.95 ± 0.08 equivalents
